# Test results from article PMC6268941, “The Binding Affinity and Molecular Basis of the Structure-Binding Relationship between Urinary Tamm-Horsfall Glycoprotein and Tumor Necrosis Factor-α” (Molecules, 2012).
# Target: T1, THP-TNF-α (Tamm-Horsfall glycoprotein / tumor necrosis factor-α binding pair) (Homo sapiens, UniProt P01375+P07911)
# T1 construct: recombinant human TNF-α (R&D Systems, 17 kDa); native THP purified from normal human urine (80-90 kDa)
# Assay: ELISA, monosaccharide inhibition of THP-TNF-α binding
# Conditions: 10 µg sugar preincubated overnight at 4 °C with coated TNF-α or coated THP, then the other protein added; which partner holds the sugar is not resolved
# T1 sequence (P01375 77-233, other chains not shown): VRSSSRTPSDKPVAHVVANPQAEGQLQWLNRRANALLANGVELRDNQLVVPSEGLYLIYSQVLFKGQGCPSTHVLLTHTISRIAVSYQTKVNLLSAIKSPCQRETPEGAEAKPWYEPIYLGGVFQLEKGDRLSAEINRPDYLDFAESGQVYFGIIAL
row,SMILES,"ELISA, monosaccharide inhibition of THP-TNF-α binding"
1,CO[C@H]1O[C@H](CO)[C@@H](O)[C@H](O)[C@@H]1O [α-methyl-D-mannoside],"mannose, GlcNAc, and GalNAc significantly suppressed THP-TNF-α binding"
2,CC(=O)N[C@H]1C(O)O[C@H](CO)[C@@H](O)[C@@H]1O (stereo partly drawn) [N-acetyl-glucosamine],"mannose, GlcNAc, and GalNAc significantly suppressed THP-TNF-α binding"
3,CC(=O)N[C@H]1C(O)O[C@H](CO)[C@H](O)[C@@H]1O (stereo partly drawn) [N-acetyl-galactosamine],"mannose, GlcNAc, and GalNAc significantly suppressed THP-TNF-α binding"
